Measured values as given in patent US8829014B2, “Thiazole and thiophene analogues, and their use in treating autoimmune diseases and cancers” (Board of Supervisors of Louisiana State University and …, priority 2006, dated 2014).
Like-named read-outs stand apart in the source and are kept apart here.

Experiments:
NF-κB = NF-κB inhibitor screen: basal NF-κB-dependent luciferase expression in HEK/NF-κB cell line; format: cell-based; settings: for inhibition at 1 µM / NFkB inhibition @ 1 uM: determined as described in Example 398; for inhibition at 1 µM: read-out: NFkB inhibition @ 1 uM
Description: Development of NF-κB and AP-1 Screens: Two HEK293 cell lines were purchased from Panomics. One cell line was stably transfected with a plasmid in which luciferase expression is regulated by six copies of the NF-κB transcriptional element (5′-[…]-3′); and the other cell line was stably transfected with a plasmid in which luciferase expression is regulated by three copies of the AP-1 transcriptional element (TGACTAA). To test the biological activity of the promoters, the HEK/NF-κB cell line was stimulated with TNF-α (20 ng/ml) for 24 hours, and the HEK/AP-1 cell line was stimulated with PMA (10 ng/ml) for 24 hours. […] In addition, a pyrimidine carboxyimide that had previously been shown (ref. 58) to be an inhibitor of transcription mediated by NF-κB and AP-1 reduced luciferase activity by approximately 40% in each of the NF-κB and AP-1 cell lines.
The above two assays analyzed the effects of the compounds on post-transcriptional gene regulation, which is known to play a key role in cancer and inflammation. By contrast, the NF-κB assay and the following assay (AP-1) test whether the compounds act at the transcriptional level. Thirty-nine representative compounds were screened in an HEK/NF-κB cell line. HEK cells were stably transfected with a plasmid expressing luciferase under the control of the NF-κB promoter. These transfected cells were plated on a 96-well plate. As above, initial screening was carried out at 1.0 μM by adding compound in DMSO (0.3%) twenty-four hours after plating. Each compound was added to each of triplicate wells. DMSO (0.3%) was added to one set of wells as a control. Luciferase activity was determined using Promega's Brite-Glo kit, and the mean for each sample was normalized to that for DMSO.
The fourteen representative compounds identified in the eIF4E screen as interesting (Numbered 2, 3, 4, 6, 8, 11, 15, 20, 21, 24, 25, 32, 33, and 35) were then tested for luciferase activity in a six-point dose response (10 nM, 33 nM, 100 nM, 330 nM, 1000 nM, and 3300 nM). Screening was carried out as described above by monitoring the effects of the compounds on basal NF-κB-dependent luciferase expression. Each dose was used out in triplicate, and repeated between two and four times. Results were normalized by the average expression level at the lowest concentration level, as described above.

carageenan-induced edema = assay: Carrageenan-induced rat paw edema test (anti-inflammatory activity); format: in vivo, Sprague-Dawley rats; settings: carrageenan-induced rat paw edema, defined in Example 397; for inhibition in vivo at 50 mg/kg: po, 3 h, read-out: % Protection
Method in brief: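 Sprague-Dawley rats (male and female, 150-250 g), fasted 18 h, given compound orally at 50 mg/kg in 0.1% sodium CMC (alternatively i.v., s.c. or i.p.). 1% carrageenan injected sub-plantar in right hind paw 1 h later. Paw displacement read again 3 h later; % protection = [(Control−Test)/Control]×100 versus saline control.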

AP-1 = AP-1 inhibitor screen: basal AP-1-dependent luciferase expression in HEK/AP-1 cell line; format: cell-based; settings: for inhibition at 1 µM: AP1; for inhibition at 1 µM / AP-1 inhibition @ 1 uM: determined as described in Example 398
Description: Development of NF-κB and AP-1 Screens: Two HEK293 cell lines were purchased from Panomics. One cell line was stably transfected with a plasmid in which luciferase expression is regulated by six copies of the NF-κB transcriptional element (5′-[…]-3′); and the other cell line was stably transfected with a plasmid in which luciferase expression is regulated by three copies of the AP-1 transcriptional element (TGACTAA). To test the biological activity of the promoters, the HEK/NF-κB cell line was stimulated with TNF-α (20 ng/ml) for 24 hours, and the HEK/AP-1 cell line was stimulated with PMA (10 ng/ml) for 24 hours.
HEK cells were stably transfected with a plasmid expressing luciferase under the control of the AP-1 promoter. The transfected cells were plated on a 96-well plate for 24 hr. Then 1.0 μM of each compound in DMSO (0.3%) was added to triplicate wells and incubated for 48 hr. DMSO (0.3%) was added to one set of triplicate wells as a control. Luciferase activity was determined using Promega's Brite-Glo kit, and the mean for each sample was normalized to that for DMSO.
Screening was carried out as described above, monitoring the compounds' effects on basal AP-1-dependent luciferase expression. Each dose-response experiment was carried out in triplicate and repeated between two and four times.

Compound	inhibition at 1 µM (NF-κB)	inhibition in vivo at 50 mg/kg (carageenan-induced edema; Rattus norvegicus)	inhibition at 1 µM (AP-1)	also measured
CCOC(=O)Nc1nc(-c2ccccc2)c(-c2nc3ccccc3c(=O)n2-c2ccccc2C)s1 [Example 171, [5-(4-Oxo-3-o-tolyl-3,4-dihydro-quinazolin-2-yl)-4-phenyl-thiazol-2-yl]-carbamic acid ethyl ester]	23%	52%	52%	
Cc1nc(Nc2ccc(Cl)cc2)sc1-c1nc2ccccc2c(=O)n1-c1ccccc1Cl [Example 230, 2-[2-(4-Chlorophenylamino)-4-methyl-thiazol-5-yl]-3-(2-chloro-phenyl)-3H-quinazolin-4-one]	60%	58%	21%	
Cc1nc(Nc2ccc(Cl)cc2)sc1-c1nc2ccccc2c(=O)n1-c1ccccc1 [Example 158, 2-[2-(4-Chlorophenylamino)-4-methyl-thiazol-5-yl]-3-phenyl-3H-quinazolin-4-one]	-9%	4%	-20%	
COC(=O)Nc1nc(-c2ccccc2)c(-c2nc3ccccc3c(=O)n2-c2ccc(Cl)cc2)s1 [Example 250, [5-(4-Oxo-3-(4-Chloro-phenyl)-3,4-dihydro-quinazolin-2-yl)-4-phenyl-thiazol-2-yl]-carbamic acid methyl ester]	17%	83%	5%	
{5-[3-(3-Methoxy-phenyl)-4-oxo-3,4-dihydro-quinazolin-yl]-thiazol-2-yl}-carbamic acid ethyl ester [Example 209]				NFkB inhibition @ 1 uM (NF-κB): 29; AP-1 inhibition @ 1 uM (AP-1): 5
O=c1c2ccccc2nc(-c2sc(Nc3ccc(Cl)cc3)nc2-c2ccccc2)n1-c1ccccc1 [Example 165, 2-[2-(4-Chloro-phenylamino)-4-phenyl-thiazol-5-yl]-3-phenyl-3H-quinazolin-4-one]	-47%	87%	27%	basal AP-1-dependent luciferase, six-point dose response (AP-1; 10 nM-3300 nM (FIG. 14)): substantial activity at submicromolar concentrations
CNc1nc(-c2ccccc2)c(-c2nc3ccccc3c(=O)n2-c2ccccc2OC)s1 [Example 205, 2-(2-Methylamino-4-phenyl-thiazol-5-yl)-3-(2-methoxyphenyl)-3H-quinazolin-4-one]	61%	56%	90%	
O=c1c2ccccc2nc(-c2sc(Nc3ccccc3)nc2-c2ccccc2)n1-c1ccc(Cl)cc1 [Example 252, 3-(4-Chloro-phenyl)-2-(4-phenyl-2-phenylamino-thiazol-5-yl)-3H-quinazolin-4-one]	80%	81%	21%	
O=c1c2ccccc2nc(-c2sc(Nc3ccc(Cl)cc3)nc2-c2ccccc2)n1-c1ccc(Cl)cc1 [Example 256, 2-[2-(4-Chloro-phenylamino)-4-phenyl-thiazol-5-yl]-3-(4-Chloro-phenyl)-3H-quinazolin-4-one]	99%	84%	61%	
CCOC(=O)Nc1nc(-c2ccccc2)c(-c2nc3ccccc3c(=O)n2-c2ccc(OC)cc2)s1 [Example 218, [5-(4-Oxo-3-(4-methoxyphenyl)-3,4-dihydro-quinazolin-2-yl)-4-phenyl-thiazol-2-yl]-carbamic acid ethyl ester]	22%	20%	24%	
O=c1c2ccccc2nc(-c2sc(Nc3ccccc3)nc2-c2ccccc2)n1-c1ccccc1 [Example 161, 3-Phenyl-2-(4-phenyl-2-phenylamino-thiazol-5-yl)-3H-quinazolin-4-one]	80%	60%	7%	
Cc1nc(Nc2ccc(Cl)cc2)sc1-c1nc2ccccc2c(=O)n1-c1ccc(Cl)cc1 [Example 246, 2-[2-(4-Chlorophenylamino)-4-methyl-thiazol-5-yl]-3-(4-chloro-phenyl)-3H-quinazolin-4-one]	96%		74%	inhibition of basal NF-κB-dependent luciferase expression (NF-κB; 3.3 μM (FIG. 12)): about 50%; inhibition in vivo at 50 mg/kg (carageenan-induced edema): 38%
CCOC(=O)Nc1nc(-c2ccccc2)c(-c2nc3ccccc3c(=O)n2-c2ccc(C)cc2)s1 [Example 193, [5-(4-Oxo-3-p-tolyl-3,4-dihydro-quinazolin-2-yl)-4-phenyl-thiazol-2-yl]-carbamic acid ethyl ester]	2%	31%	11%	
CNc1nc(C)c(-c2nc3ccccc3c(=O)n2-c2ccc(C(C)=O)cc2)s1 [Example 261, 2-(4-Methyl-2-methylamino-thiazol-5-yl)-3-(4-acetyl-phenyl)-3H-quinazolin-4-one]	71%	42%	-33%	
Cc1ccccc1-n1c(-c2sc(Nc3ccccc3)nc2C)nc2ccccc2c1=O [Example 169, 2-(4-Methyl-2-phenylamino-thiazol-5-yl)-3-o-tolyl-3H-quinazolin-4-one]	21%	42%	60%	
{5-[3-(4-Methoxy-phenyl)-4-oxo-3,4-dihydro-quinazolin-yl]-thiazol-2-yl}-carbamic acid ethyl ester [Example 215]				NFkB inhibition @ 1 uM (NF-κB): 34; % Protection (carageenan-induced edema): 25%; AP-1 inhibition @ 1 uM (AP-1): −6
CC(=O)c1ccc(-n2c(-c3sc(Nc4ccc(Cl)cc4)nc3-c3ccccc3)nc3ccccc3c2=O)cc1 [Example 271, 2-[2-(4-Chlorophenylamino)-4-phenyl-thiazol-5-yl]-3-(4-acetyl-phenyl)-3H-quinazolin-4-one]	-12%	23%	31%	
2-[2-(1-Furan-2-yl-vinylamino)-4-phenyl-thiazol-5-yl]-3-(4-Chloro-phenyl)-3H-quinazolin-4-one [Example 255]				NFkB inhibition @ 1 uM (NF-κB): 0; AP-1 inhibition @ 1 uM (AP-1): 7
COC(=O)Nc1nc(-c2ccccc2)c(-c2nc3ccccc3c(=O)n2-c2ccc(C(C)=O)cc2)s1 [Example 265, [5-(4-Oxo-3-(4-acetyl-phenyl)-3,4-dihidro-quinazolin-2-yl)-4-phenyl-thiazol-2-yl]-carbamic acid methyl ester]				NFkB inhibition @ 1 uM (NF-κB): 0; AP-1 inhibition @ 1 uM (AP-1): 16
Cc1ccc(Nc2nc(-c3ccccc3)c(-c3nc4ccccc4c(=O)n3-c3ccc(Cl)cc3)s2)cc1 [Example 257, 2-[2-(4-Methyl-phenylamino)-4-phenyl-thiazol-5-yl]-3-(4-Chloro-phenyl)-3H-quinazolin-4-one]	-10%		-51%	
COc1ccc(-n2c(-c3sc(NC(=O)c4ccc(C)cc4)nc3-c3ccccc3)nc3ccccc3c2=O)cc1 [Example 223, 4-Methyl-N-[5-(4-oxo-3-(4-methoxyphenyl)-3,4-dihydroquinazolin-2-yl)-4-phenyl-thiazol-2-yl]-benzamide]	-24%		-28%	
CCOC(=O)Nc1nc(C)c(-c2nc3ccccc3c(=O)n2-c2ccccc2C)s1 [Example 166, [4-Methyl-5-(4-oxo-3-o-tolyl-3,4-dihidro-quinazolin-2-yl)-thiazol-2-yl]-carbamic acid ethyl ester]				NFkB inhibition @ 1 uM (NF-κB): 21; AP-1 inhibition @ 1 uM (AP-1): 14
